Laboratory results: PubChem BioAssay AID2060613 (Molecular Pharmacology Branch, DTP, NCI, 2025)

Test system: 233499-124-R-J3-PDC complex spheroid viability
Test: Anticancer human tumor 233499-124-R-J3-PDC patient-derived colon adenocarcinoma cell line growth inhibition [CLK]
Details: for IC50: curve of first compound; for viability, T/C: stronger effect = lower value
Description: A high-throughput screen of multi-cell type tumor spheroids was designed to identify active combinations of […] and targeted small molecules. Complex spheroids include a stromal component modeled by human endothelial cells (HUVEC) and fibroblasts modeled by human mesenchymal stem cells (MSCs). The concentration ranges selected for each drug and investigational agent were based upon clinically achievable concentrations if the clinical Cmax of the agent was known.
Compounds. The drugs and investigational agents: cirtuvivint (SM08502; NSC835563), CC-671 (NSC850746), vemurafenib (NSC761431), tapotoclax (NSC804041), sotorasib (NSC818433), adagrasib (NSC831453), MRTX-1133 (NSC836407), BAY2416964 (NSC825713), copanlisib (NSC816437), inavolisib (NSC800729), abemaciclib (NSC768073), osimertinib (NSC779217), entinostat (NSC756642), eltanexor (KPT-8602, NSC794443), venetoclax (NSC766270), ceralasertib (NSC777638), bortezomib (NSC756655), olaparib (NSC753686), talazoparib (NSC767125), alisertib (NSC759677), peposertib (NSC802822), gemcitabine (NSC613327), 5-fluorouracil (NSC19893), SN-38 (NSC673596), oxaliplatin (NSC266046), paclitaxel (NSC125973), and doxorubicin (NSC123127), were obtained from the National Cancer Institute (NCI) Developmental Therapeutics Program Chemical Repository. The FDA-approved anticancer drug set is available from the Developmental Therapeutics Program at https://dtp.cancer.gov/organization/dscb/obtaining/available plates.htm. […] The stock solutions were prepared in dimethyl sulfoxide (DMSO, Sigma-Aldrich, St. Louis, MO, cat. D2650), except for the platinum complexes which were prepared in saline (Quality Biological, Gaithersburg, MD, cat. 114-055-101), at 800-fold the tested concentration and stored at -70 degrees C prior to their use. All drugs and investigational agents were tested over a range starting from a high concentration at or near the clinical Cmax and decreasing in half-log increments. If the clinical Cmax for an agent had not been determined, the highest concentration tested was 10 microM.
Cell Culture. All cells were maintained in an incubator at 37 degrees C and 5% CO2 with 95% humidity. The PDC lines were cultured according to standard operating procedures established by the NCI PDMR. Briefly, all PDCs were thawed and cultured in Matrigel-coated flasks prepared with a working solution of 1X Ham's F-12 nutrient mix, without supplementation (Invitrogen, Waltham, MA, cat. 11765054), 100 U/mL penicillin-streptomycin (Invitrogen, cat. 15140122), and 2.5% Matrigel (Corning Inc., Corning, NY, cat. 354248) for the first three passages. The 947758-054-R-J2-PDC line was cultured in 6B/Colon 1A media, which includes advanced DMEM/F-12 (Thermo Fisher Scientific, cat. 12634028), 10 mM HEPES (Thermo Fisher Scientific, cat. 15630080), 1X GlutaMAX supplement (Thermo Fisher Scientific, cat. 35050061), 0.1 mg/mL primocin (InvivoGen, cat. ant-pm-2), 10% defined fetal bovine serum, heat inactivated (HyClone Laboratories Inc., cat. SH30070.03HI), 1.25 mM N-Acetyl-L-cysteine (Sigma-Aldrich, cat. A9165), 10 mM nicotinamide (Sigma-Aldrich, cat. N0636), 1X B-27 supplement (Thermo Fisher Scientific, cat. 17504044), 1X N-2 supplement (Thermo Fisher Scientific, cat. 17502048), and 10 microM Y-27632 dihydrochloride (Tocris Bioscience, cat. 1254). The 876862-298-R-J1-PDC was cultured in 6E media, which includes all 6B/Colon 1A media components plus 50% L-WRN conditioned media (ATCC, cat. CRL-3276), 50 ng/mL recombinant human EGF recombinant protein (hEGF; Thermo Fisher Scientific, cat. PHG0311), 10 ng/mL recombinant human fibroblast growth factor 10 (hGFG-10; PeproTech, cat. 100-26), 1 ng/mL recombinant human fibroblast growth factor 2 (hFGF-2; PeproTech, cat. 100-18B), and 1 µM prostaglandin E2 (PGE2; Tocris, cat. 2296). The 227483-062-R1-J1-PDC line was cultured in Panc media, containing all 6E components except hFGF-2, with the addition of 500 nM SB-431542 (Selleckchem, cat. S1067) and 10 nM gastrin (Tocris, cat. 3006). […]

[1] = second compound 0.0316 µM, first compound 0.0316 µM
[2] = second compound 0.0316 µM, first compound 0.1 µM
[3] = second compound 0.0316 µM, first compound 0.316 µM
[4] = second compound 0.0316 µM, first compound 1 µM
[5] = second compound 0.0316 µM, first compound 3.16 µM
[6] = second compound 0.0316 µM, first compound 10 µM
[7] = second compound 0.1 µM, first compound 0.0316 µM
[8] = second compound 0.1 µM, first compound 0.1 µM
[9] = second compound 0.1 µM, first compound 0.316 µM
[10] = second compound 0.1 µM, first compound 1 µM
[11] = second compound 0.1 µM, first compound 3.16 µM
[12] = second compound 0.1 µM, first compound 10 µM
[13] = second compound 0.316 µM, first compound 0.0316 µM
[14] = second compound 0.316 µM, first compound 0.1 µM
[15] = second compound 0.316 µM, first compound 0.316 µM
[16] = second compound 0.316 µM, first compound 1 µM
[17] = second compound 0.316 µM, first compound 3.16 µM
[18] = second compound 0.316 µM, first compound 10 µM
[19] = second compound 1 µM, first compound 0.0316 µM
[20] = second compound 1 µM, first compound 0.1 µM
[21] = second compound 1 µM, first compound 0.316 µM
[22] = second compound 1 µM, first compound 1 µM
[23] = second compound 1 µM, first compound 3.16 µM
[24] = second compound 1 µM, first compound 10 µM
[25] = second compound 3.16 µM, first compound 0.0316 µM
[26] = second compound 3.16 µM, first compound 0.1 µM
[27] = second compound 3.16 µM, first compound 0.316 µM
[28] = second compound 3.16 µM, first compound 1 µM
[29] = second compound 3.16 µM, first compound 3.16 µM
[30] = second compound 3.16 µM, first compound 10 µM
[31] = second compound 10 µM, first compound 0.0316 µM
[32] = second compound 10 µM, first compound 0.1 µM
[33] = second compound 10 µM, first compound 0.316 µM
[34] = second compound 10 µM, first compound 1 µM
[35] = second compound 10 µM, first compound 3.16 µM
[36] = second compound 10 µM, first compound 10 µM
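Further: spheroids exposed to the drug combinations for seven days.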
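Wherever viability, T/C is given: percent viability relative to DMSO vehicle control wells taken as 100%.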

## C=C(F)C(=O)N1CCN(c2nc(OCC3CCCN3C)nc3c2CCN(c2cccc4cccc(Cl)c24)C3)CC1CC#N (stereo unspecified) + CNC(=O)c1ccc(Nc2nc(OC3CCCC3)c3c(-c4ccc5nc(C)oc5c4)c[nH]c3n2)c(OC)c1
Second compound 0.0316 µM
  IC50: 8760 nM
Second compound 0.1 µM
  IC50: 4720 nM
Second compound 0.316 µM
  IC50: 5570 nM
Second compound 1 µM
  IC50: 5660 nM
Second compound 3.16 µM
  IC50: 5530 nM
Second compound 10 µM
  IC50: 5200 nM
[1]
  viability, T/C: 92.1%
[2]
  viability, T/C: 84.5%
[3]
  viability, T/C: 99%
[4]
  viability, T/C: 89.6%
[5]
  viability, T/C: 93.5%
[6]
  viability, T/C: 44.5%
[7]
  viability, T/C: 65.9%
[8]
  viability, T/C: 73.2%
[9]
  viability, T/C: 81.3%
[10]
  viability, T/C: 70.2%
[11]
  viability, T/C: 61.4%
[12]
  viability, T/C: 28%
[13]
  viability, T/C: 76.7%
[14]
  viability, T/C: 64.9%
[15]
  viability, T/C: 69.7%
[16]
  viability, T/C: 72.8%
[17]
  viability, T/C: 79.2%
[18]
  viability, T/C: 26.7%
[19]
  viability, T/C: 71.4%
[20]
  viability, T/C: 82.5%
[21]
  viability, T/C: 78.4%
[22]
  viability, T/C: 64%
[23]
  viability, T/C: 71.2%
[24]
  viability, T/C: 30%
[25]
  viability, T/C: 76.8%
[26]
  viability, T/C: 77.3%
[27]
  viability, T/C: 75.8%
[28]
  viability, T/C: 73.1%
[29]
  viability, T/C: 75.7%
[30]
  viability, T/C: 22.9%
[31]
  viability, T/C: 75.5%
[32]
  viability, T/C: 66.3%
[33]
  viability, T/C: 73.8%
[34]
  viability, T/C: 66.5%
[35]
  viability, T/C: 74.3%
[36]
  viability, T/C: 22%

## COC1C=CCC(C)C(C)S(=O)(=O)NC(=O)c2ccc3c(c2)N(CC2CCC21)CC1(CCCc2cc(Cl)ccc21)CO3 (stereo unspecified) + CN1CCN(c2cc(C(=O)Nc3cc4cc(-c5cnn(C)c5)ccc4cn3)ccn2)CC1
Second compound 0.0316 µM
  IC50: 3890 nM
Second compound 0.1 µM
  IC50: 3650 nM
Second compound 0.316 µM
  IC50: 270 nM
Second compound 1 µM
  IC50: < 31.6 nM
Second compound 3.16 µM
  IC50: < 31.6 nM
Second compound 10 µM
  IC50: < 31.6 nM
[1]
  viability, T/C: 93.9%
[2]
  viability, T/C: 98%
[3]
  viability, T/C: 94.6%
[4]
  viability, T/C: 80.2%
[5]
  viability, T/C: 60.4%
[6]
  viability, T/C: 7.46%
[7]
  viability, T/C: 98.8%
[8]
  viability, T/C: 98.6%
[9]
  viability, T/C: 90.5%
[10]
  viability, T/C: 79.7%
[11]
  viability, T/C: 57.3%
[12]
  viability, T/C: 7.28%
[13]
  viability, T/C: 91.5%
[14]
  viability, T/C: 80%
[15]
  viability, T/C: 46.5%
[16]
  viability, T/C: 13.9%
[17]
  viability, T/C: 30.5%
[18]
  viability, T/C: 3.11%
[19]
  viability, T/C: 0.62%
[20]
  viability, T/C: 1.27%
[21]
  viability, T/C: 0.44%
[22]
  viability, T/C: 0.32%
[23]
  viability, T/C: 0.78%
[24]
  viability, T/C: 0.58%
[25]
  viability, T/C: 0.45%
[26]
  viability, T/C: 0.45%
[27]
  viability, T/C: 0.5%
[28]
  viability, T/C: 0.44%
[29]
  viability, T/C: 0.43%
[30]
  viability, T/C: 0.31%
[31]
  viability, T/C: 0.31%
[32]
  viability, T/C: 0.28%
[33]
  viability, T/C: 0.31%
[34]
  viability, T/C: 0.3%
[35]
  viability, T/C: 0.29%
[36]
  viability, T/C: 0.22%

## COc1cccc2c1C(=O)c1c(O)c3c(c(O)c1C2=O)CC(O)(C(=O)CO)CC3OC1CC(N)C(O)C(C)O1 (stereo unspecified) + CNC(=O)c1ccc(Nc2nc(OC3CCCC3)c3c(-c4ccc5nc(C)oc5c4)c[nH]c3n2)c(OC)c1
Second compound 0.0316 µM
  IC50: 336 nM
Second compound 0.1 µM
  IC50: 286 nM
Second compound 0.316 µM
  IC50: 155 nM
Second compound 1 µM
  IC50: 142 nM
Second compound 3.16 µM
  IC50: 115 nM
Second compound 10 µM
  IC50: 79.9 nM
[1]
  viability, T/C: 92%
[2]
  viability, T/C: 85.1%
[3]
  viability, T/C: 38.5%
[4]
  viability, T/C: 38.5%
[5]
  viability, T/C: 13.5%
[6]
  viability, T/C: 6.81%
[7]
  viability, T/C: 71.3%
[8]
  viability, T/C: 71.7%
[9]
  viability, T/C: 40.7%
[10]
  viability, T/C: 34.2%
[11]
  viability, T/C: 17%
[12]
  viability, T/C: 2.92%
[13]
  viability, T/C: 61.7%
[14]
  viability, T/C: 62.1%
[15]
  viability, T/C: 33.8%
[16]
  viability, T/C: 13.8%
[17]
  viability, T/C: 4.56%
[18]
  viability, T/C: 1.31%
[19]
  viability, T/C: 51.1%
[20]
  viability, T/C: 75.6%
[21]
  viability, T/C: 19.3%
[22]
  viability, T/C: 1.71%
[23]
  viability, T/C: 1.27%
[24]
  viability, T/C: 0.38%
[25]
  viability, T/C: 55%
[26]
  viability, T/C: 53%
[27]
  viability, T/C: 27.4%
[28]
  viability, T/C: 1.95%
[29]
  viability, T/C: 0.8%
[30]
  viability, T/C: 0.35%
[31]
  viability, T/C: 56.1%
[32]
  viability, T/C: 48.5%
[33]
  viability, T/C: 11.7%
[34]
  viability, T/C: 0.74%
[35]
  viability, T/C: 0.74%
[36]
  viability, T/C: 0.32%
